# In patent US20050036904A1, “Methods for eradication of nanobacteria” (priority 1998, published 2005):
# Counter-ions that a name gives are not always drawn.
# Key:
# [1] = tested on: SF-nanobacteria; assay: Chemical disinfection of SF-nanobacteria; type: cell-based; parameters: Resistance of SF-nanobacteria to chemical disinfectants (survival), exposure time 10 min: key to the marks not given beside the values; settings: for Resistance of SF-nanobacteria to chemical disinfectants (survival), exposure time 10 min: 10 min exposure at room temperature; for Resistance of SF-nanobacteria to chemical disinfectants (survival), exposure time 10 min / Resistance of SF-nanobacteria to chemical disinfectants (survival), exposure time 30 min: survival after subculture compared to diluent only; for Resistance of SF-nanobacteria to chemical disinfectants (survival), exposure time 30 min: 30 min exposure at room temperature; for Effect of chemical treatment on SF-nanobacteria (in words): room temperature exposure
# Text: The cultures were exposed to the disinfectants after removal of the culture medium. For the autoclaving, UV, microwave, and drying treatments, the medium was removed and an equal amount of PBS used instead. For the heat treatments, the SF-nanobacteria were harvested by scraping the culture vessel followed by centrifugation of the medium. The obtained pellet was suspended in PBS and used in the test. After treatments the SF-nanobacteria were subcultured in DMEM medium and the growth followed by light microscopy to see the adherence and typical mineralization.
# The concentrations of the chemicals used were those commonly used for disinfection or as instructed by the manufacturer. The chemicals included 70% ethanol, 2% glutaraldehyde, 4% formaldehyde, 0.5% hypochlorite, 3% hydrogen peroxide, 1M hydrochloric acid (HCl), 1M sodium hydroxide (NaOH), 1% sodium dodecyl sulfate (SDS), 1% Tween 80, 1% Triton X-100, 3M guanidium-hydrochloride, 3M urea, 1% Virkon® (Antec International Ltd., Suffolk, England; 100% product contains 50% potassium persulfate, 5% sulfaminoic acid), 1.5% Erifenol® (Orion OY, Finland; 100% product contains <5% NaOH, <5% o-benzyl-p-chlorophenol, 5-15% p-chloro-m-cresol), 1% Klorilli® (Orion OY, Finland; 100% product contains sodium metasilicate, sodium N-chloro-p-toluenesulfonamide-3-hydrate and 20,000 ppm active chlorine), and 3% Buraton® (Schulke & Mayr, Germany; 100% product contains 4.5% formaldehyde, 6.8% glyoxal, 1.5% glyoxylic acid, 6% dimethylaurylbenzyl-ammonium chloride). The dilutions to be used were freshly prepared on the day of exposure in sterile distilled water. As a positive control, only diluent was used. Negative control contained only culture medium.
# The SF-nanobacteria were exposed to the chemicals for 10 and 30 minutes at room temperature after removal of the culture medium. After exposure, the disinfectant solution was removed and fresh medium added (with a neutralization step in the case of HCl and NaOH). If any significant deattachment occurred, nanobacteria were recovered by centrifugation, and subcultured.
# [2] = tested on: nanobacteria; assay: Antibiotic susceptibility of nanobacteria, Minimal Inhibition Concentration (MIC) in 96-well plates; type: cell-based
# Procedure: Antibiotic sensitivity tests were carried out by measuring Minimal Inhibition Concentration (MIC), a common practice in clinical microbiology.
# The tests were performed in 96-well plates. DMEM (commercial cell culture medium) containing 10% gamma-irradiated fetal bovine serum (FBS)(dose about 3 Mrads; this treatment inactivates nanobacteria in the serum so that the basic medium is sterile) was used as the basic culture medium. These components are commercially available, e.g., from Gibco. The antibiotic stock solutions were sterile filtered through 0.2 micrometer filters. The stock solutions were then serially diluted (into the basal culture medium) to provide a final starting concentration of 0.5 mg/ml and 1:2 dilutions therefrom, unless otherwise specified. For each antibiotic three parallel tests were performed using all the antibiotic dilutions and, additionally, positive and negative control experiments. […] 100 μl of dilutions of the nanobacteria inoculum were added to all wells except the negative controls. The plates were incubated at mammalian cell culture conditions (37° Celsius, 5% carbon dioxide, 95% humid air). The absorbance values at 650 nm were recorded by using an ELISA reader at the start, and at 4, 8, 12, 14 days. […] Calculations were based on absorbance curves where absorbance was plotted against concentration of the antibiotic.
# [3] = tested on: nanobacterial stone formation on human teeth; settings: fluoride concentrations typically present in toothpastes
# [4] = tested on: bone resorption; settings: both in vitro and in vivo; cited from earlier work
# [5] = tested on: nanobacteria; assay: Nanobacterial growth in culture media with metal ions; type: cell-based; settings: added to culture media at submillimolar levels
# Text: (§1) Nanobacteria also absorb some heavy metals. Nanobacteria can be stained well with silver or copper compounds. […] Silver and copper parts or platings on surfaces, such as catheters or stents, can provide an antinanobacterial effect by preventing nanobacterial biofilm formation. In in vitro tests nanobacteria avidly formed biofilm on two different commercial stents made of a plastic type of material. This biofilm formation was prevented by the addition of silver or copper salts to the culture medium.
# [6] = tested on: nanobacterial biofilm; assay: Nanobacterial biofilm formation on commercial stents in vitro; type: cell-based, nanobacteria; settings: salts added to the culture medium; two commercial plastic-type stents
# Text: as §1
# [7] = tested on: nanobacteria; assay: Treatment of human patients infected with nanobacteria; type: in vivo; settings: person, chronic fatigue syndrome
# [8] = tested on: serum nanobacteria; assay: Antibiotic sensitivity test of serum nanobacteria (cell culture antibiotics); type: cell-based; settings: 100 μg/ml, cultured one month in medium containing 10% fetal bovine serum
# Procedure: Nanobacteria were cultured with 10% fetal bovine serum in DMEM medium (serum nanobacteria) for one month at 37° C. in an atmosphere of 5% CO2-95% air. The cultures were harvested by centrifugation. For the autoclaving, UV, microwave, heating and drying treatments, the harvested nanobacteria were suspended in phosphate buffered saline (pH 7.4; PBS). After treatments, subculturing of the nanobacteria was made in 10% gamma irradiated fetal bovine serum in DMEM medium. The growth of serum nanobacteria was followed by light microscopy and absorbance measurement with a spectrophotometer at 650 nm.
# The 1× concentrations are those recommended for cell culture. After 10 days culture in 10% serum containing DMEM with the antibiotic, growth was compared to that of nanobacteria cultures without antibiotics present.
# [9] = tested on: calculus formation on teeth; settings: laboratory animals; cited from earlier work
Compound,"Resistance of SF-nanobacteria to chemical disinfectants (survival), exposure time 30 min [1]",Kind of antinanobacterial effect in the in vitro test (in words) [2],also measured
"OCl [0.5% hypochlorite, hypochlorite]",+++,–,"Resistance of SF-nanobacteria to chemical disinfectants (survival), exposure time 10 min [1]: +++"
"CCCCCCCCCCCCOS(=O)(=O)[O-].[Na+] [1% SDS, sodium dodecyl sulfate]",+++,–,"Resistance of SF-nanobacteria to chemical disinfectants (survival), exposure time 10 min [1]: +++"
"CCCCCCCC/C=C\CCCCCCCC(=O)OCCOCC(OCCO)C1OCC(OCCO)C1OCCO (stereo not shown) [1% Tween 80, Tween 80]",+++,–,"Resistance of SF-nanobacteria to chemical disinfectants (survival), exposure time 10 min [1]: +++"
"Cl [1M HCl, hydrochloric acid]",++,–,"Effect of chemical treatment on SF-nanobacteria (in words) [1]: dissolved the apatite layer of nanobacteria, but remineralization was observed after addition of culture medium"
"[Na+].[OH-] [1M NaOH, sodium hydroxide]",+++,–,"Resistance of SF-nanobacteria to chemical disinfectants (survival), exposure time 10 min [1]: +++"
"O=CCCCC=O [2% glutaraldehyde, glutaraldehyde]",+++,–,"Resistance of SF-nanobacteria to chemical disinfectants (survival), exposure time 10 min [1]: +++"
"OO [3% H2O2, hydrogen peroxide]",+++,–,"Resistance of SF-nanobacteria to chemical disinfectants (survival), exposure time 10 min [1]: +++"
"N=C(N)N [3M Guanidium HCl, guanidium-hydrochloride]",0,–,Effect of chemical treatment on SF-nanobacteria (in words) [1]: resulted in the deattachment of the SF-nanobacteria
"NC(N)=O [3M Urea, urea]",+++,–,"Resistance of SF-nanobacteria to chemical disinfectants (survival), exposure time 10 min [1]: +++"
"C=O [4% formaldehyde, formaldehyde]",+++,–,"Resistance of SF-nanobacteria to chemical disinfectants (survival), exposure time 10 min [1]: +++"
"CCO [70% ethanol, ethanol]",+++,–,"Resistance of SF-nanobacteria to chemical disinfectants (survival), exposure time 10 min [1]: +++"
CC(=O)Oc1ccccc1C(=O)O [Acetylsalicylic acid],–,weak,–
CC1(C)S[C@@H]2[C@H](NC(=O)[C@H](N)c3ccccc3)C(=O)N2[C@H]1C(=O)O [Ampicillin],–,weak bacteriostatic effect,–
O=P(O)(O)C(Cl)(Cl)P(=O)(O)O [Chlodronate],–,bacteriocidic effect,–
O=C(O)CC(O)(CC(=O)O)C(=O)O [Citrate],–,effective antinanobacterial agent,–
"C[C@H]1c2cccc(O)c2C(=O)C2=C(O)[C@]3(O)C(=O)C(C(N)=O)=C(O)[C@@H](N(C)C)[C@@H]3[C@@H](O)[C@@H]21 [Doxycyclin, Doxycycline]",–,effective on inhibiting nanobacterial growth,MIC values calculated from the 8 day results ([2]; 8 day results): around 1 mg per liter; Stability under the test conditions ([2]; MIC test culture conditions): not stable under the test conditions
"O=C(O)CN(CCN(CC(=O)O)CC(=O)O)CC(=O)O [EDTA, ethylenediaminetetraacetic acid]",–,antinanobacterial effects,–

Compound,"Resistance of SF-nanobacteria to chemical disinfectants (survival), exposure time 30 min [1]",Kind of antinanobacterial effect in the in vitro test (in words) [2],also measured
O=C(O)CN(CCOCCOCCN(CC(=O)O)CC(=O)O)CC(=O)O [EGTA],–,antinanobacterial effects,–
CC(O)(P(=O)(O)O)P(=O)(O)O [Ethidronate],–,bacteriocidic effect,–
F [Fluoride],–,–,Nanobacterial stone formation on human teeth [3]: inhibit nanobacterial stone formation
[H]/N=C(/N)N[C@H]1[C@H](O)[C@@H](O)[C@H](O[C@@H]2O[C@@H](C)[C@](O)(C=O)[C@H]2O[C@@H]2O[C@@H](CO)[C@H](O)[C@@H](O)[C@@H]2NC)[C@@H](N/C(N)=N\[H])[C@@H]1O [Streptomycin],–,bacteriostatic effects at high antibiotic concentrations,–
COc1cc(Cc2cnc(N)nc2N)cc(OC)c1OC [Trimethoprim],–,highly effective but was only bacteriostatic,–
CN[C@H](CC(C)C)C(=O)N[C@H]1C(=O)N[C@@H](CC(N)=O)C(=O)N[C@H]2C(=O)N[C@H]3C(=O)N[C@H](C(=O)N[C@H](C(=O)O)c4cc(O)cc(O)c4-c4cc3ccc4O)[C@H](O)c3ccc(c(Cl)c3)Oc3cc2cc(c3O[C@@H]2O[C@H](CO)[C@@H](O)[C@H](O)[C@H]2O[C@H]2C[C@](C)(N)[C@H](O)[C@H](C)O2)Oc2ccc(cc2Cl)[C@H]1O [Vancomycin],–,effective bacteriostat against nanobacteria at relatively high concentrations,–
"CC1=CC(=O)c2ccccc2C1=O [Vitamin K (Menadion), Menadion]",–,toxic to nanobacteria at concentrations that are not harmful to mammalian cells,–
NCCCC(O)(P(=O)(O)O)P(=O)(O)O [alendronate],–,–,Potency relative to etidronate [4]: approximately 700 fold
[Cu] [copper],–,–,Nanobacterial growth [5]: prevented nanobacterial growth; Biofilm formation on stents [6]: prevented
Nc1ccc(C(=O)O)c(O)c1 [para-aminosalicylic acid],–,–,MIC value (in words) ([2]; compared with acetylsalicylic acid): identical with acetylsalicylic acid
CN(C)[C@@H]1C(O)=C(C(N)=O)C(=O)[C@@]2(O)C(O)=C3C(=O)c4c(O)cccc4[C@@](C)(O)[C@H]3C[C@@H]12 [tetracycline HCl],–,–,"Nanobacteria status of patient samples ([7]; 500 mg 4 times per day for one month, then 500 mg twice a day for 5 months, urine and serum samples): nanobacteria negative after one month therapy; Patient's condition ([7]; after one month therapy): improved"
Gentamycin,–,bacteriostatic effects at high antibiotic concentrations,Morphology of nanobacteria in SEM [8]: changes in the morphology
Neomycin,–,bacteriostatic effects at high antibiotic concentrations,–
Penicillin,–,–,Calculus formation [9]: do not
Triton X-100 [1% Triton X-100],+++,–,"Resistance of SF-nanobacteria to chemical disinfectants (survival), exposure time 10 min [1]: +++"
Vitamin D,–,very weak inhibitory effect,–
silver,–,–,Nanobacterial growth [5]: prevented nanobacterial growth; Biofilm formation on stents [6]: prevented
